Assays:
estrogen receptor ERα = biological target: T1, estrogen receptor ERα (Homo sapiens, UniProt P03372); settings: competition assays, literature (Morito et al. 2001); cited from earlier work
T1 sequence (P03372 1-595): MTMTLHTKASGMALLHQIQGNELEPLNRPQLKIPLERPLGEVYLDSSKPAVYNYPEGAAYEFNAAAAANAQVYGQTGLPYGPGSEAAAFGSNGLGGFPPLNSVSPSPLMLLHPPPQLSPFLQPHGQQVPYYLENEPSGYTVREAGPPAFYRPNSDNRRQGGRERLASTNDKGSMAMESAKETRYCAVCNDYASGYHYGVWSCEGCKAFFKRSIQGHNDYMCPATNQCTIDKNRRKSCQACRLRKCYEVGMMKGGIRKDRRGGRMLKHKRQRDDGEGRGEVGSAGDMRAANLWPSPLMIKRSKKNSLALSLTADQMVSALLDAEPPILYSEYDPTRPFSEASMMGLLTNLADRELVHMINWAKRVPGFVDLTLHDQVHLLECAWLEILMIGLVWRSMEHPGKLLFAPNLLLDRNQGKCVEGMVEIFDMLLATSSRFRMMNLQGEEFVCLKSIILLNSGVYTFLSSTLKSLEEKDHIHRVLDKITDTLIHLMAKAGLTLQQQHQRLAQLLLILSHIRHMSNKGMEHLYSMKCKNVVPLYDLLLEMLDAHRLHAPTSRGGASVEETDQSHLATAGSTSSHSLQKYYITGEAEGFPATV

estrogen receptor ERβ = estrogen receptor ERβ (Homo sapiens, UniProt Q92731); settings: competition assays, literature (Morito et al. 2001); cited from earlier work
fibrinogen = test: Fibrinogen levels in postmenopausal women, six month treatment; format: in vivo, human; settings: for Fibrinogen: n = 30, mean±SEM
Source text: (§1) Cardiovascular risk markers, according to various embodiments of the present invention, may comprise fasting insulin levels, fasting glucose levels, insulin resistance levels, osteoprotegerin levels, sex hormone-binding globulin levels, fibrinogen levels, estradiol levels and/or the like. […] See Crisafulli A., Altavilla D., Marini H., Bitto A., Cucinotta D., Frisina N., Corrado F., D'Anna R., Squadrito G., Adamo E., Marini R., Romeo A., Cancellieri F., Buemi M., Squadrito F., Menopause, The Journal of the North American Menopause Society, Vol. 12 No. 2 pp. 186-192.
(§2) Prior to this six month period, participants in the study were placed on a standard fat-reduced diet for four-weeks, which constituted a stabilization process.
To measure fibrinogen levels, automated routine procedures were utilized.
(§3) Data was presented as mean±SEM, and the significance of the difference was assessed by analysis of variance, where a value of P less than 0.05 was considered statistically significant.

fasting glucose = test: Fasting glucose levels in postmenopausal women, six month treatment (enzymatic kit); format: in vivo, human; settings: for Fasting Glucose: n = 30, mean±SEM
Source text: as §1, §2
To measure fasting glucose levels, serum glucose was measured by an enzymatic kit (BioSystemSA, Barcelona, Spain), (intra-assay CV 1%; interassay CV 1.8%; lower detection limit, 0.0126 mmol/L). Glucose in the sample produces, by means of the coupled reactions, a colored complex that can be spectrophotometrically measured.
as §3

homocysteine = test: Plasma homocysteine in osteopenic women, six month study (immunochemiluminescent assay); format: in vivo, human
Source text: Inflammatory markers, according to various representative embodiments of the present invention, may comprise G-reactive proteins and/or homocysteine and/or the like. […] Prior to the six month period, participants in the study were placed on a standard fat-reduced diet for four-weeks, which constituted a stabilization process. […] Throughout the study period, samples were obtained while participants were fasting to minimize dietary effects. The samples were used to measure serum C-reactive protein and plasma homocysteine.
Plasma homocysteine was measured using an immunochemiluminescent assay (Immulite DPC, Los Angeles, Calif., USA). Samples were stored after separation at −80° C. until assayed. Homocysteine was assayed on plasma samples after treatment with S-adenosyl-L-homocysteine (SAH) hydrolase and dithiothreitol (DTT) solution. EDTA plasma was separated from the cells as soon as possible after collection. Samples were stored on ice between the time of sampling and centrifugation.
(§4) For statistical evaluation of the serum C-reactive protein and homocysteine, a two-way ANOVA with Bonferroni post-test was performed.

osteoprotegerin = test: Osteoprotegerin levels in postmenopausal women, six month treatment (ELISA); format: in vivo, human; settings: for Osteoprotegerin: n = 30, mean±SEM
Source text: as §1, §2
To measure osteoprotegerin levels, a commercially available ELISA kit according to the protocol of the manufacturer (Immunodiagnostik Bensheim Germany) was utilized. This assay detects monomeric, dimeric, and ligand-bound forms of OPG (intra-assay CV 5%; interassay CV 6%; lower detection limit, 0.14 pmol/l).
as §3

estradiol = test: Estradiol levels in postmenopausal women, six month treatment (HPLC-UV); format: in vivo, human; settings: for Estradiol: baseline, prior to six month treatment, n = 30
Source text: as §1, §2
(§5) The assay was performed by using an HPLC method with UV detection.
as §3

[1] = Plasma genistein levels in postmenopausal women, six month treatment (HPLC-UV); format: in vivo, human; settings: for Plasma Genistein: baseline, prior to six month treatment, n = 30
Source text: as §1, §2, §5, §3

[2] = system: sex hormone-binding globulin; test: Sex hormone-binding globulin levels in postmenopausal women, six month treatment (immunoradiometric assay); format: in vivo, human; settings: for Sex Hormone Binding Globulin: n = 30, mean±SEM
Source text: as §1, §2
To measure sex hormone-binding globulin levels, an immunoradiometric assay (RADIM SPA, Rome, Italy) (intra-assay CV 4%; interassay CV 5%; lower detection limit, 2.5 nmol/L) was used.
as §3

insulin resistance = test: Insulin resistance (HOMA-IR) in postmenopausal women, six month treatment; format: in vivo, human; settings: for Insulin resistance: HOMA-IR, n = 30, mean±SEM
Source text: as §1, §2
To measure insulin resistance levels, insulin was measured by a commercially available ELISA kit according to the protocol of the manufacturer (DRG Diagnostik, Frauenberg Germany) (intraassay CV 4%; interassay CV 6%; lower detection limit, <1.5 μlU/ml). Serum glucose was measured by an enzymatic kit (BioSystemSA, Barcelona, Spain), (intra-assay CV 1%; interassay CV 1.8%; lower detection limit, 0.0126 mmol/l). Glucose in the sample produces, by means of the coupled reactions, a colored complex that can be spectrophotometrically measured. Insulin resistance was calculated using the Homeostasis Model Assessment method (HOMA-IR=(insulin×glucose)/22.5).
as §3

C-reactive protein = test: Serum C-reactive protein in osteopenic women, six month study (immunochemiluminescent assay); format: in vivo, human
Source text: Inflammatory markers, according to various representative embodiments of the present invention, may comprise G-reactive proteins and/or homocysteine and/or the like. […] Prior to the six month period, participants in the study were placed on a standard fat-reduced diet for four-weeks, which constituted a stabilization process. The participants were then randomly assigned to receive either genistein, HRT or a placebo. Throughout the study period, samples were obtained while participants were fasting to minimize dietary effects. The samples were used to measure serum C-reactive protein and plasma homocysteine.
Serum C-reactive protein was measured using an immunochemiluminescent assay (Immulite DPC, Los Angeles, Calif., USA). Samples were stored after separation at −80° C. until assayed. Sensitivity was 0.07 μg/ml with intra- and interassay coefficient of variations of 3.1 and 5.7%, respectively. The reference interval was 0.20-5.10 μg/ml.
as §4

fasting insulin = test: Fasting insulin levels in postmenopausal women, six month treatment (ELISA); format: in vivo, human; settings: for Fasting Insulin: n = 30, mean±SEM
Source text: as §1, §2
To measure fasting insulin levels, insulin was measured by a commercially available ELISA kit according to the protocol of the manufacturer (DRG Diagnostik, Frauenberg Germany) (intraassay CV 4%; interassay CV 6%; lower detection limit, <1.5 μlU/ml).
as §3

[3] = after six months, genistein 54 mg/d
[4] = after six months, genistein 54 mg/d, listed as genistein
[5] = baseline to six months, not taking uncertainties into account
[6] = baseline, prior to six month treatment
[7] = baseline, prior to six month treatment, listed as genistein
[8] = osteopenic women, after six months, genistein 54 mg/day or HRT, mean ± SE
[9] = osteopenic women, before treatment (baseline), n = 30, mean ± SE

Sequence of estrogen receptor ERβ (Q92731 whole entry): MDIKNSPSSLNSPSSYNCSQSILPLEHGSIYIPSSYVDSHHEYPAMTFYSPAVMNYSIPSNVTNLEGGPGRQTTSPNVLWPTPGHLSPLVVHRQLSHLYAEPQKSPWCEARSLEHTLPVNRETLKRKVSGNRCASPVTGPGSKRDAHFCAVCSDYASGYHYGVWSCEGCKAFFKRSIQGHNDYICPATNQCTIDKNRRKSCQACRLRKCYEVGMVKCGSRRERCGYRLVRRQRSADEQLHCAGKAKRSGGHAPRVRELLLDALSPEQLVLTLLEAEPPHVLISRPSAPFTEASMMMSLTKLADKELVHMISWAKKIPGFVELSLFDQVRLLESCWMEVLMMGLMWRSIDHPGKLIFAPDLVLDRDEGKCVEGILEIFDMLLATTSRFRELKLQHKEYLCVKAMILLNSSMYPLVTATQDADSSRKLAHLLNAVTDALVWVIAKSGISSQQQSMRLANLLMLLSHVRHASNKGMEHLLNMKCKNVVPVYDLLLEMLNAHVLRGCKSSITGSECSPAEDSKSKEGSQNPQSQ

## Oc1ccc([C@H]2COc3cc(O)ccc3C2)cc1 [equol]
Estrogen receptor ERα
  Binding to estrogen receptor ERα: binding similar to the isoflavones, but lower than genistein
Estrogen receptor ERβ
  Binding to estrogen receptor ERβ: binding similar to the isoflavones, but lower than genistein

## O=C1c2c(O)cc(O)cc2OCC1c1ccc(O)cc1 (stereo not shown) [dihydrogenistein]
Estrogen receptor ERα
  Binding to estrogen receptor ERα: binding similar to the isoflavones, but lower than genistein
Estrogen receptor ERβ
  Binding to estrogen receptor ERβ: binding similar to the isoflavones, but lower than genistein

## O=c1c(-c2ccc(O)cc2)coc2cc(O)cc(O)c12 [Genistein, 4′,5,7-Trihydroxyisoflavone 5,7-Dihydroxy-3-(4-hydroxyphenyl)-4H-1-benzopyran-4-one]
fibrinogen; [3]
  Fibrinogen: 3.18 ± 0.12 g/L
fibrinogen; [4]
  Fibrinogen: 3.18 ± 0.12 g/L
fibrinogen; [5]
  Decrease of fibrinogen levels: ~11.7%
fibrinogen; [6]
  Fibrinogen: 3.6 ± 0.12 g/L
fibrinogen; [7]
  Fibrinogen: 3.6 ± 0.12 g/L
Fasting glucose; after six months of treatment, P<0.001 as compared to placebo, FIG. 5
  Decrease in levels of fasting glucose: 8.7±2.3%
Fasting glucose; [3]
  Fasting Glucose: 4.3 ± 0.10
Fasting glucose; [6]
  Fasting Glucose: 4.74 ± 0.11
homocysteine; after six months, difference not statistically significant (P>0.05)
  Plasma homocysteine mean value, change from baseline: slightly decreased from baseline
homocysteine; [8]
  Plasma homocysteine, After: 10.72 ± 0.46 µmol/L
homocysteine; [9]
  Plasma homocysteine, Before: 11.36 ± 0.39 µmol/L
osteoprotegerin; after six months, FIG. 8
  Decrease of osteoprotegerin levels: −2±0.3%
osteoprotegerin; [3]
  Osteoprotegerin: 4.4 ± 0.11
osteoprotegerin; [6]
  Osteoprotegerin: 4.67 ± 0.13
estradiol; after 6 months, genistein 54 mg/d, FIG. 4A
  Estradiol levels, six month readings: approximately 78 pmol/L
estradiol
  Estradiol: 73 ± 2.19 pmol/L
estradiol; listed as genistein
  Estradiol: approximately 74 pmol/L
estradiol; given over a six month period, FIG. 4A
  Effect on estradiol levels: does not significantly elevate estradiol levels
[1]; 6 months vs baseline
  Increase in plasma genistein levels after 6 months of treatment: approximately 60%
[1]
  Plasma Genistein: 0.07 ± 0.004 µmol/L
[1]; listed as genistein
  Plasma Genistein: approximately 0.75 μmol/l
[1]; female, human, in vivo, 54 mg/d
  concentration at 6 months: ~1200 nM
[2]; [3]
  Sex Hormone Binding Globulin: 63 ± 3.83 nmol/L
[2]; [4]
  Sex Hormone Binding Globulin: 63 ± 3.83 nmol/L
[2]; [5]
  Decrease of sex hormone binding globulin levels: ~11.3%
[2]; [6]
  Sex Hormone Binding Globulin: 71 ± 4.2 nmol/L
[2]; [7]
  Sex Hormone Binding Globulin: 71 ± 4.2 nmol/L
Insulin resistance; after six months, FIG. 7
  Decrease of insulin resistance levels: −14±5.8%
Insulin resistance; [3]
  Insulin resistance: 1.18 ± 0.08
Insulin resistance; [6]
  Insulin resistance: 1.47 ± 0.12
C-reactive protein; after 6 months of treatment
  C-reactive protein level, change from baseline: no significant differences at the end of treatment from baseline
C-reactive protein; [8]
  Serum C-reactive protein (CRP), After: 2.13 ± 0.45 mg/L
C-reactive protein; [9]
  Serum C-reactive protein (CRP), Before: 1.73 ± 0.31 mg/L
Fasting insulin; after six months, FIG. 6
  Decrease of fasting insulin levels: −12±3.33%
Fasting insulin; [3]
  Fasting Insulin: 6.24 ± 0.45
Fasting insulin; [6]
  Fasting Insulin: 7 ± 0.55
